The subject of one assay is VCaP cells. Put plainly: Cellular growth inhibition assay for VCaP cells (CellTiter-Glo 2.0, 72 hours). It counts as cell-based, human. As to conditions: CellTiter-Glo 2.0. On the procedure: Exemplary compounds were tested for ability to inhibit the proliferation of VCaP cells. VCap cells are a commercially available human prostate cancer cell line.
VCaP cells were purchased from American Type Cell Culture (ATCC Cat #CRL2876) and then seeded on poly-D-lysine coated, black clear-bottom 384-well plates at 5000/well in 25 μL Dulbecco's Modified Eagle Medium (DMEM) supplemented with 10% w/w Fetal bovine serum (FBS) and 1% w/w Pen-Strep. Pen-Strep is a commercially available mixture of penicillin G and streptomycin, which is used in mammalian cell culture media to prevent bacterial contamination. Dulbecco's Modified Eagle Medium (DMEM) supplemented with 10% w/w fetal bovine serum (FBS) and 1% w/w Pen-Strep is herein referred to as Treatment Medium. Following seeding of cells in the plates, the plates were spun at 300×g for 30 seconds, then equilibrated to room temperature for 30 minutes, and then deposited in a humidified tissue culture incubator maintained at 37° C. with 5% CO2.
(§1) At 24 hours after seeding of the cells, dilutions of test compound were prepared in DMSO and dissolved in Treatment Medium, to achieve a final DMSO concentration of 0.5% w/w, thereby providing the Test Compound Solution. A 25 μL aliquot of the Test Compound Solution was added to cells in the well plates. An equal volume of a solution containing DMSO and Treatment Medium was used as a negative control. Following treatment of cells with Test Compound Solution or said equal volume of a solution containing DMSO and Treatment Medium, the plates were spun at 300×g for 30 seconds, and then left in an incubator for 72 hours.
(§2) At the end of the treatment duration, cell viability was quantified with CellTiter-Glo 2.0 reagent (Promega Cat #G9243). For this purpose, plates were equilibrated to room temperature for 30 minutes, and then 25 μL of CellTiter-Glo 2.0 reagent was added to cells in the plate wells. Plates were then agitated on a shaker for two minutes at 500 rpm and subsequently incubated at room temperature for 10 minutes. Following incubation, the plates were spun at 3000×g for 30 seconds, then sealed with an optical adhesive cover, and luminescence readings were measured with an En Vision Plate Reader.
(§3) Data was normalized using zero luminescence for baseline. A four-parameter non-linear regression curve fit was applied to dose-response data in GraphPad Prism data analysis software to determine the half-maximal growth inhibitory concentration (GI50) for each test compound.
A general note: ATP-based viability assays read luminescence as a measure of living cells.

The subject of assay [1] is T-Rex 293 cell line SC3 cells lacking increased expression of androgen receptor protein. Put plainly: Cellular growth inhibition, T-Rex 293 SC3 cells without doxycycline (CellTiter-Glo 2.0, 72 hours). In kind it is cell-based. As to conditions: T-Rex 293 SC3 cells not exposed to doxycycline (no increased androgen receptor expression). On the procedure:
(§4) Ability of the test compounds to inhibit proliferation of the foregoing cell types was evaluated according to the procedures set forth below.
(§5) The doxycycline-inducible androgen receptor protein expressing cell line was established using the following protocol: T-Rex 293 cells were purchased from Invitrogen (Cat #R71007) and transfected using Lipofectamine 2000 with the wild-type androgen receptor protein sequence cloned into the pcDNA4/TO vector. Transfected cells were selected using 400 μg/mL Zeocin (Invitrogen Cat #R25001). Following selection, single clones were raised and maintained in Dulbecco's Modified Eagle Medium (DMEM) supplemented with 10% w/w Tetracycline-free fetal bovine serum (FBS) and 250 μg/mL Zeocin. Clones were analyzed for expression of androgen receptor protein in the presence and absence of 10 ng/ml doxycycline (Sigma Cat #D9891), and a single doxycycline-inducible clone (hereinafter “SC3”) was selected for use in downstream assays.
(§6) The SC3 cells were seeded on poly-D-lysine coated, black clear-bottom 384-well plates at 2500/well, in 25 μL Phenol Red Free Dulbecco's Modified Eagle Medium (DMEM) supplemented with 10% w/w charcoal-dextran treated fetal bovine serum (FBS) and 1% w/w pen-strep, with or without 10 ng/ml doxycycline. Pen-Strep is a commercially available mixture of penicillin G and streptomycin, which is used in mammalian cell culture media to prevent bacterial contamination. Phenol Red Free Dulbecco's Modified Eagle Medium (DMEM) supplemented with 10% w/w charcoal-dextran treated fetal bovine serum (FBS) and 1% w/w pen-strep, with or without 10 ng/mL doxycycline is herein referred to as Treatment Medium. Following seeding of cells in the plates, the plates were spun at 300×g for 30 seconds, then equilibrated to room temperature for 30 minutes, and then deposited in a humidified tissue culture incubator maintained at 37° C. with 5% CO2.
as §1, §2, §3

The subject of assay [2] is T-Rex 293 cell line SC3 cells having increased expression of androgen receptor protein due to exposure to doxycycline. Put plainly: Cellular growth inhibition, T-Rex 293 SC3 cells with doxycycline-induced androgen receptor (CellTiter-Glo 2.0, 72 hours). It counts as cell-based. As to conditions: T-Rex 293 SC3 cells with 10 ng/ml doxycycline (increased androgen receptor expression), 72 hours, CellTiter-Glo 2.0. On the procedure:
as §4, §5, §6, §1, §2, §3

This note sets out measurements from US12668599B2, “Heterobifunctional compounds and methods of treating disease” (Halda Therapeutics OpCo, Inc., priority 2023, dated 2026).

SMILES strings stand for the structures.

For orientation: GI50 means the concentration giving 50% growth inhibition. Read a low GI50 as more potent growth inhibition.

`COc1cc(O[C@H]2CC[C@H](NC(=O)c3ccc(N4CCC5(CCN(c6ccc(C7=NC(Cc8ncco8)c8nnc(C)n8-c8sc(C)c(C)c87)cc6F)CC5)C4)nn3)CC2)ccc1C#N` (single isomer, unassigned) [Compound I-134]: the values for the 50% growth inhibitory concentration (GI50) (in the assay on VCaP cells (72 hours); in assay [1]; in assay [2]) were more than 3000 nM, more than 3000 nM and less than 500 nM, respectively.

Turning to `COc1cc(O[C@H]2CC[C@H](NC(=O)c3ccc(N4CCC5(CCN(c6ccc(C7=NC(Cc8ncco8)c8nnc(C)n8-c8sc(C)c(C)c87)cc6F)CC5)C4)nn3)CC2)ccc1C#N` (single isomer, unassigned) [Compound I-135], the GI50 (in the assay with VCaP cells (72 hours); in assay [1]; in assay [2]) was less than 500 nM each time.

On to `COC[C@@H]1N=C(c2ccc(C3CCC4(CC3)CCN(c3ccc(C(=O)NC5CCC(Oc6ccc(C#N)c(OC(F)(F)F)c6)CC5)nn3)C4)cc2)c2c(sc(C)c2C)-n2c(C)nnc21` (stereo partly drawn) [Compound I-2, N-[4-[4-cyano-3-(trifluoromethoxy)phenoxy]cyclohexyl]-6-[8-[4-[(9R)-9-(methoxymethyl)-4,5,13-trimethyl-3-thia-1,8,11,12-tetrazatricyclo[8.3.0.0^2,6]trideca-2 (6),4,7,10,12-pentaen-7-yl]phenyl]-2-azaspiro[4.5]decan-2-yl]pyridazine-3-carboxamide], for which the GI50 is less than 500 nM with VCaP cells (Homo sapiens, VCaP, 72 h); less than 500 nM in assay [1] (72 h); less than 500 nM in assay [2].

For `COCC[C@@H]1N=C(c2ccc(C3CCC4(CC3)CCN(c3ccc(C(=O)NC5CCC(Oc6ccc(C#N)c(OC(F)(F)F)c6)CC5)nn3)C4)cc2)c2c(sc(C)c2C)-n2c(C)nnc21` (stereo partly drawn) [Compound I-4, N-[4-[4-cyano-3-(trifluoromethoxy)phenoxy]cyclohexyl]-6-[8-[4-[(9S)-9-(2-methoxyethyl)-4,5,13-trimethyl-3-thia-1,8,11,12-tetrazatricyclo[8.3.0.0^2,6]trideca-2 (6),4,7,10,12-pentaen-7-yl]phenyl]-2-azaspiro[4.5]decan-2-yl]pyridazine-3-carboxamide], the GI50 is less than 500 nM with VCaP cells (Homo sapiens, VCaP, 72 h); 1500 to 3000 nM in assay [1] (72 h); less than 500 nM in assay [2].

With `CC[C@@H]1N=C(c2ccc(C#CC3CC4(C3)CN(c3ccc(C(=O)N[C@H]5CC[C@H](Oc6ccc(C#N)c(OC(F)(F)F)c6)CC5)nn3)C4)cc2)c2c(sc(C)c2C)-n2c(C)nnc21` [Compound I-6, N-[4-[4-cyano-3-(trifluoromethoxy)phenoxy]cyclohexyl]-6-[6-[2-[4-[(9S)-9-ethyl-4,5,13-trimethyl-3-thia-1,8,11,12-tetrazatricyclo[8.3.0.0^2,6]trideca-2 (6),4,7,10,12-pentaen-7-yl]phenyl]ethynyl]-2-azaspiro[3.3]heptan-2-yl]pyridazine-3-carboxamide], the 50% growth inhibitory concentration (GI50) was less than 500 nM with VCaP cells (Homo sapiens, VCaP, 72 h); less than 500 nM in assay [1] (72 h); less than 500 nM in assay [2].

As for `Cc1sc2c(c1C)C(c1ccc(C#CC3CC4(C3)CN(c3ccc(C(=O)N[C@H]5CC[C@H](Oc6ccc(C#N)c(OC(F)(F)F)c6)CC5)nn3)C4)cc1)=NC1(CC1)c1nnc(C)n1-2` [Compound I-7, N-[4-[4-cyano-3-(trifluoromethoxy)phenoxy]cyclohexyl]-6-[6-[2-[4-(4,5,13-trimethylspiro[3-thia-1,8,11,12-tetrazatricyclo[8.3.0.0^2,6]trideca-2 (6),4,7,10,12-pentaene-9,1′-cyclopropane]-7-yl)phenyl]ethynyl]-2-azaspiro[3.3]heptan-2-yl]pyridazine-3-carboxamide], the GI50 is less than 500 nM in the assay on VCaP cells (Homo sapiens, VCaP, 72 h); less than 500 nM in assay [1] (72 h); less than 500 nM in assay [2].

On to `COC[C@@H]1N=C(c2ccc(C#CC3CC4(C3)CN(c3ccc(C(=O)N[C@H]5CC[C@H](Oc6ccc(C#N)c(OC(F)(F)F)c6)CC5)nn3)C4)cc2)c2c(sc(C)c2C)-n2c(C)nnc21` [Compound I-8, N-[4-[4-cyano-3-(trifluoromethoxy)phenoxy]cyclohexyl]-6-[6-[2-[4-[(9R)-9-(methoxymethyl)-4,5,13-trimethyl-3-thia-1,8,11,12-tetrazatricyclo[8.3.0.0^2,6]trideca-2 (6),4,7,10,12-pentaen-7-yl]phenyl]ethynyl]-2-azaspiro[3.3]heptan-2-yl]pyridazine-3-carboxamide], for which the 50% growth inhibitory concentration (GI50) with VCaP cells (Homo sapiens, VCaP, 72 h) is less than 500 nM; in assay [1] (72 h) it was less than 500 nM; in assay [2], less than 500 nM.

Turning to `COCC[C@@H]1N=C(c2ccc(C#CC3CC4(C3)CN(c3ccc(C(=O)N[C@H]5CC[C@H](Oc6ccc(C#N)c(OC(F)(F)F)c6)CC5)nn3)C4)cc2)c2c(sc(C)c2C)-n2c(C)nnc21` [Compound I-9, N-[4-[4-cyano-3-(trifluoromethoxy)phenoxy]cyclohexyl]-6-[6-[2-[4-[(9S)-9-(2-methoxyethyl)-4,5,13-trimethyl-3-thia-1,8,11,12-tetrazatricyclo[8.3.0.0^2,6]trideca-2 (6),4,7,10,12-pentaen-7-yl]phenyl]ethynyl]-2-azaspiro[3.3]heptan-2-yl]pyridazine-3-carboxamide], the GI50 was less than 500 nM with VCaP cells (Homo sapiens, VCaP, 72 h); less than 500 nM in assay [1] (72 h); less than 500 nM in assay [2].

Take `Cc1sc2c(c1C)C(c1ccc(C#CC3CC4(C3)CN(c3ccc(C(=O)N[C@H]5CC[C@H](Oc6ccc(C#N)c(OC(F)(F)F)c6)CC5)nn3)C4)cc1)=N[C@@H](C)c1nnc(C)n1-2` [Compound I-12, N-[4-[4-cyano-3-(trifluoromethoxy)phenoxy]cyclohexyl]-6-[6-[2-[4-[(9S)-4,5,9,13-tetramethyl-3-thia-1,8,11,12-tetrazatricyclo[8.3.0.0^2,6]trideca-2 (6),4,7,10,12-pentaen-7-yl]phenyl]ethynyl]-2-azaspiro[3.3]heptan-2-yl]pyridazine-3-carboxamide]: the GI50 with VCaP cells (Homo sapiens, VCaP, 72 h) was less than 500 nM; in assay [1] (72 h), less than 500 nM; in assay [2], less than 500 nM.

As for `CC[C@@H]1N=C(c2ccc(C3CCC4(CC3)CCN(c3ccc(C(=O)NC5CCC(Oc6ccc(C#N)c(OC(F)(F)F)c6)CC5)nn3)C4)cc2)c2c(sc(C)c2C)-n2c(C)nnc21` (stereo partly drawn) [Compound I-13, N-((1r,4r)-4-(4-cyano-3-(trifluoromethoxy)phenoxy)cyclohexyl)-6-(8-(4-((S)-6-ethyl-2,3,9-trimethyl-6H-thieno[3,2-f][1,2,4]triazolo[4,3-a][1,4]diazepin-4-yl)phenyl)-2-azaspiro[4.5]decan-2-yl) pyridazine-3-carboxamide], the GI50 (with VCaP cells (72 hours); in assay [1]; in assay [2]) was less than 500 nM in each case.

Take `Cc1sc2c(c1C)C(c1ccc(OC3CC4(CCN(c5ccc(C(=O)NC6CCC(Oc7ccc(C#N)c(OC(F)(F)F)c7)CC6)nn5)CC4)C3)cc1)=N[C@@H](Cc1ncco1)c1nnc(C)n1-2` (stereo partly drawn) [Compound I-16, N-[4-[4-cyano-3-(trifluoromethoxy)phenoxy]cyclohexyl]-6-[2-[4-[(9S)-4,5,13-trimethyl-9-(oxazol-2-ylmethyl)-3-thia-1,8,11,12-tetrazatricyclo[8.3.0.0^2,6]trideca-2 (6),4,7,10,12-pentaen-7-yl]phenoxy]-7-azaspiro[3.5]nonan-7-yl]pyridazine-3-carboxamide]: the 50% growth inhibitory concentration (GI50) in the assay with VCaP cells (Homo sapiens, VCaP, 72 h) is less than 500 nM; in assay [1] (72 h) it was less than 500 nM; in assay [2] it was less than 500 nM.
